Like-named read-outs stand apart in the source and are kept apart here.
How the values were obtained:
DAUDA–FABP1 = biological target: T1, DAUDA–FABP1 (Homo sapiens, UniProt P07148); test: Stopped-flow kinetics of palmitate binding to DAUDA–FABP1
T1 construct: GST (N, cleaved yes); made in house; host or cells: Escherichia coli DH5α
T1 sequence (P07148 with tags, fused parts or gaps): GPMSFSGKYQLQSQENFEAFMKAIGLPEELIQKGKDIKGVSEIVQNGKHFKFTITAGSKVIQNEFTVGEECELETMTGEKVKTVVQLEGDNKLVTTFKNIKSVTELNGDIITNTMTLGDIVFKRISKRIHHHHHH
Protocol: As mentioned previously, palmitate was selected to measure binding kinetics to DAUDA–FABP1 because of the low Kd observed with the protein (Fig. 5D, Table 1). When a ligand binds to DAUDA-bound FABP1, DAUDA is displaced (potentially to the second ligand-binding site, forming a ternary complex; Figure 2, Figure 5 and Figure 2, Figure 5A) and attenuates the fluorescence of the system (Fig. 5). Taking advantage of this phenomenon, we preincubated FABP1 (0.5 μM) with DAUDA (0.5 μM) to form the fluorescent complex. This complex was then rapidly mixed with palmitate (0.5 μM to 25 μM), and the attenuation of fluorescence was monitored as palmitate binds and displaces DAUDA. The data were fit to double exponential equations, and the rate of initial binding was not observed to vary with palmitate concentration (Fig. 7). A kon value (k5) of 2.3 ± 0.2 × 10^7 M^−1 s^−1 was calculated from the data (Fig. 7A).
Figure 7 Kinetics of binding of palmitate to FABP1. A stoichiometric mixture of DAUDA and FABP1 (0.5 μM) was rapidly combined with (A) 0.5 μM, (B) 5 μM, (C) 12.5 μM, and (D) 25 μM palmitate, and the attenuation of fluorescence (λex = 335 nm, λem > 420 nm) was monitored over time (as FD → FDS, Fig. 5A). The plots were fit to double exponential equations, and the following rate constants for each phase were extracted: A, k1 11 ± 1 s^−1, k2 0.04 ± 0.003 s^−1; B, k1 16± 1s^−1, k2 0.017 ± 0.004 s^−1; C, k1 14 ± 1 s^−1, k2 0.05 ± 0.01 s^−1; D, k1 13 ± 1 s^−1, k2 0.07 ± 0.01 s^−1. Each trace corresponds to ≥6 averaged replicate traces. DAUDA, 11-dansylaminoundecanoic acid; FABP1, fatty acid binding protein.
The kon determination of FABP1 with palmitate was done in the same manner as described with DAUDA but with the modification that the solutions mixed in the stopped-flow spectrofluorometer were (A) FABP1 (1 μM) and DAUDA (1 μM, aliquoted from a stock solution prepared in K2CO3 [50 mM], see “Preparation of DAUDA stock solutions”) and (B) palmitate (1–50 μM, aliquoted from a stock solution prepared in K2CO3 [50 mM]). Both mixing solutions (2 ml) were prepared in potassium phosphate buffer (100 mM, pH 7.4). The data collection, processing, and analysis proceeded via the same steps described earlier. The only difference in interpretation is that the signal (binding of palmitate) displaces DAUDA in the FABP1-binding site, so we observe an attenuation of fluorescence.

P450 4A11 = tested on: P450 4A11; parameters: species or system human
Description: To predict the potential effects of FABP1 on P450 4A11 catalysis, we programmed two computational models in KinTek Explorer to reflect those presented in Figure 2 (i.e., free ligand model versus direct transfer model). The models were equipped with the rate constants and/or Kd values estimated for either palmitate or DAUDA (where applicable) and for protein–protein binding, which are summarized in Table 2. As is indicated in Table 2, certain rate constants necessary for the modeling are estimated based on a known Kd value and an individual known rate constant. To predict the kinetic result of the free ligand model, the rate(s) of transfer (k6, k-6) were set to a value of zero, reflecting the predicted inability of the two proteins to interact. The interaction of P450 and FABP1 occurs in the absence of substrate, although whether the P450–FABP1 (EF) complex can accept a substrate (to form EFS) is unknown. The modeling software estimated a 1 µM Kd value for the interaction with the assumption that the complex could not accept a cytosolic substrate. To predict the kinetic result of the direct transfer model, our experimentally estimated rates of transfer were allowed to be fit by the model. Aside from the manipulations with the transfer rate, all remaining rate constants were input as they appear in Table 2.
When provided the experimental conditions for the kinetic assays in Figure 12, the free ligand model predicted that the rate of P450 catalysis decreases rapidly as the concentration of FABP1 approaches the concentration of substrate in the experiment (Fig. 12A, blue line), which is intuitive (given the difference in palmitate binding affinities; Table 1, Table 2 and 2). Provided the same conditions, the direct transfer model predicted a slight attenuation of P450 activity (as the concentration of FABP1 approaches the total concentration of substrate (S)), which yielded an excellent fit to our experimental data when a rate of P450 catalysis of 0.11 s^−1 was used (Fig. 12A, red line). […] In a separate experiment, the free ligand model similarly predicted that P450 activity would not be observed when the concentration of substrate was below the concentration of FABP1 (Fig. 12B, blue line). The direct transfer model predicted a hyperbolic product distribution (for [S] < [FABP1]) and gave a satisfactory fit to the experimental data when the same rates of ES^′→ES described earlier were used, but the rate of P450 catalysis was reduced 20-fold (to 0.005 s^−1) (Fig. 12B, red line).
Data were imported into KinTek Explorer software (version 11.01; KinTek, https://kintekcorp.com/software) ([76]) as Excel txt files and processed using an Apple computer (operating system 11.6.2, Apple). The kinetic modeling of a binding titration of FABP1 with palmitate (Fig. S13) as well as the txt files used for all kinetic modeling are provided in the Supporting Information.

Row | Molecule | k1 (fast phase), palmitate binding to DAUDA–FABP1 (DAUDA–FABP1; 0.5 μM palmitate) [s⁻¹] | k2 (slow phase), palmitate binding to DAUDA–FABP1 (DAUDA–FABP1; 0.5 μM palmitate) [s⁻¹] | k1 (fast phase), palmitate binding to DAUDA–FABP1 (DAUDA–FABP1; 5 μM palmitate) [s⁻¹] | k2 (slow phase), palmitate binding to DAUDA–FABP1 (DAUDA–FABP1; 5 μM palmitate) [s⁻¹] | k1 (fast phase), palmitate binding to DAUDA–FABP1 (DAUDA–FABP1; 12.5 μM palmitate) [s⁻¹] | k2 (slow phase), palmitate binding to DAUDA–FABP1 (DAUDA–FABP1; 12.5 μM palmitate) [s⁻¹] | k1 (fast phase), palmitate binding to DAUDA–FABP1 (DAUDA–FABP1; 25 μM palmitate) [s⁻¹] | k2 (slow phase), palmitate binding to DAUDA–FABP1 (DAUDA–FABP1; 25 μM palmitate) [s⁻¹] | kon (DAUDA–FABP1; DAUDA and FABP1 0.5 μM each, read-out: kon of palmitate to DAUDA–FABP1 (k5)) [M⁻¹ s⁻¹] | reduction of rate of P450 catalysis, Fig. 12B vs Fig. 12A model (P450 4A11) [fold] | forward rate of ES′→ES conformational transition (P450 4A11; direct transfer model) [s⁻¹] | reverse rate of ES′→ES conformational transition (P450 4A11; direct transfer model) [s⁻¹] | rate of P450 catalysis used in direct transfer model (P450 4A11; fit to Fig. 12A (FABP1 varied, palmitate 5 μM)) [s⁻¹] | rate of P450 catalysis used in direct transfer model (P450 4A11; fit to Fig. 12B (palmitate varied, FABP1 5 μM)) [s⁻¹] | Kd (P450 4A11) [nM]
1 | CCCCCCCCCCCCCCCC(=O)O [Palmitate (C16), palmitate] | 11 ± 1 | 0.04 ± 0.003 | 16 ± 1 | 0.017 ± 0.004 | 14 ± 1 | 0.05 ± 0.01 | 13 ± 1 | 0.07 ± 0.01 | 2.3e+07 | 20 | 0.086 | 0.013 | 0.11 | 0.005 | 
2 | FABP1: delipidated recombinant liver fatty acid binding protein with C-terminal hexahistidine tag |  |  |  |  |  |  |  |  |  |  |  |  |  |  | 1000

Source: article PMC11847541, “Liver fatty acid binding protein FABP1 transfers substrates to cytochrome P450 4A11 for catalysis” (The Journal of Biological Chemistry, 2025)
